# Target: Aβ42 (Homo sapiens, UniProt P05067)
# Assay: Th-T (thioflavin-T) assay of Aβ42 aggregation
# Type: biochemical
# Conditions: for Th-T fluorescence of Aβ42 with compound, mean of three wells (Fig. 7a source data): concentration 50, unit not given
# Chain of Aβ42 (P05067 672-713): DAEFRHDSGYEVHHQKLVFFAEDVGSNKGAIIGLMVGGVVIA
compound,measurement,setting,value
C=C1CC[C@@H]2[C@](C)(CC[C@H]3O[C@H](C=C(C)C)C[C@@]23C)[C@@H]1Cc1c(OC)oc(CO)c(C)c1=O [Compound 20],"Th-T fluorescence of Aβ42 with compound, mean of three wells (Fig. 7a source data)",time-course reading M143,2.125
same,"Th-T fluorescence of Aβ42 with compound, mean of three wells (Fig. 7a source data)",time-course reading M144,2.117
same,"Th-T fluorescence of Aβ42 with compound, mean of three wells (Fig. 7a source data)",time-course reading M145,2.122
same,"Th-T fluorescence of Aβ42 (sheet Fig. 7a), mean of three wells","head suffix _10 (concentration 10), reading M63",3.458
same,"Th-T fluorescence of Aβ42 (sheet Fig. 7a), mean of three wells","head suffix _10 (concentration 10), reading M64",3.444
same,"Th-T fluorescence of Aβ42 (sheet Fig. 7a), mean of three wells","head suffix _10 (concentration 10), reading M65",3.449
same,"Th-T fluorescence of Aβ42 (sheet Fig. 7a), mean of three wells","head suffix _10 (concentration 10), reading M66",3.444
same,"Th-T fluorescence of Aβ42 (sheet Fig. 7a), mean of three wells","head suffix _10 (concentration 10), reading M67",3.437
same,"Th-T fluorescence of Aβ42 (sheet Fig. 7a), mean of three wells","head suffix _10 (concentration 10), reading M68",3.439
same,"Th-T fluorescence of Aβ42 (sheet Fig. 7a), mean of three wells","head suffix _10 (concentration 10), reading M69",3.4039
same,"Th-T fluorescence of Aβ42 (sheet Fig. 7a), mean of three wells","head suffix _10 (concentration 10), reading M70",3.402
same,"Th-T fluorescence of Aβ42 (sheet Fig. 7a), mean of three wells","head suffix _10 (concentration 10), reading M71",3.423
same,"Th-T fluorescence of Aβ42 (sheet Fig. 7a), mean of three wells","head suffix _10 (concentration 10), reading M72",3.425
same,"Th-T fluorescence of Aβ42 (sheet Fig. 7a), mean of three wells","head suffix _10 (concentration 10), reading M73",3.414
same,"Th-T fluorescence of Aβ42 (sheet Fig. 7a), mean of three wells","head suffix _10 (concentration 10), reading M74",3.412
same,"Th-T fluorescence of Aβ42 (sheet Fig. 7a), mean of three wells","head suffix _10 (concentration 10), reading M75",3.393
same,"Th-T fluorescence of Aβ42 (sheet Fig. 7a), mean of three wells","head suffix _10 (concentration 10), reading M76",3.416
same,"Th-T fluorescence of Aβ42 (sheet Fig. 7a), mean of three wells","head suffix _10 (concentration 10), reading M77",3.391
same,"Th-T fluorescence of Aβ42 (sheet Fig. 7a), mean of three wells","head suffix _10 (concentration 10), reading M78",3.393
same,"Th-T fluorescence of Aβ42 (sheet Fig. 7a), mean of three wells","head suffix _10 (concentration 10), reading M79",3.378
same,"Th-T fluorescence of Aβ42 (sheet Fig. 7a), mean of three wells","head suffix _10 (concentration 10), reading M80",3.379
same,"Th-T fluorescence of Aβ42 (sheet Fig. 7a), mean of three wells","head suffix _10 (concentration 10), reading M81",3.38
same,"Th-T fluorescence of Aβ42 (sheet Fig. 7a), mean of three wells","head suffix _10 (concentration 10), reading M82",3.375
same,"Th-T fluorescence of Aβ42 (sheet Fig. 7a), mean of three wells","head suffix _10 (concentration 10), reading M83",3.373
same,"Th-T fluorescence of Aβ42 (sheet Fig. 7a), mean of three wells","head suffix _10 (concentration 10), reading M84",3.355
same,"Th-T fluorescence of Aβ42 (sheet Fig. 7a), mean of three wells","head suffix _20 (concentration 20), reading M63",3.439
same,"Th-T fluorescence of Aβ42 (sheet Fig. 7a), mean of three wells","head suffix _20 (concentration 20), reading M64",3.419
same,"Th-T fluorescence of Aβ42 (sheet Fig. 7a), mean of three wells","head suffix _20 (concentration 20), reading M65",3.416
same,"Th-T fluorescence of Aβ42 (sheet Fig. 7a), mean of three wells","head suffix _20 (concentration 20), reading M66",3.432
same,"Th-T fluorescence of Aβ42 (sheet Fig. 7a), mean of three wells","head suffix _20 (concentration 20), reading M67",3.438
same,"Th-T fluorescence of Aβ42 (sheet Fig. 7a), mean of three wells","head suffix _20 (concentration 20), reading M68",3.449
same,"Th-T fluorescence of Aβ42 (sheet Fig. 7a), mean of three wells","head suffix _20 (concentration 20), reading M69",3.405
same,"Th-T fluorescence of Aβ42 (sheet Fig. 7a), mean of three wells","head suffix _20 (concentration 20), reading M70",3.395
same,"Th-T fluorescence of Aβ42 (sheet Fig. 7a), mean of three wells","head suffix _20 (concentration 20), reading M71",3.403
same,"Th-T fluorescence of Aβ42 (sheet Fig. 7a), mean of three wells","head suffix _20 (concentration 20), reading M72",3.419
same,"Th-T fluorescence of Aβ42 (sheet Fig. 7a), mean of three wells","head suffix _20 (concentration 20), reading M73",3.421
same,"Th-T fluorescence of Aβ42 (sheet Fig. 7a), mean of three wells","head suffix _20 (concentration 20), reading M74",3.387
same,"Th-T fluorescence of Aβ42 (sheet Fig. 7a), mean of three wells","head suffix _20 (concentration 20), reading M75",3.3567
same,"Th-T fluorescence of Aβ42 (sheet Fig. 7a), mean of three wells","head suffix _20 (concentration 20), reading M76",3.391
same,"Th-T fluorescence of Aβ42 (sheet Fig. 7a), mean of three wells","head suffix _20 (concentration 20), reading M77",3.3972
same,"Th-T fluorescence of Aβ42 (sheet Fig. 7a), mean of three wells","head suffix _20 (concentration 20), reading M78",3.402
same,"Th-T fluorescence of Aβ42 (sheet Fig. 7a), mean of three wells","head suffix _20 (concentration 20), reading M79",3.362
same,"Th-T fluorescence of Aβ42 (sheet Fig. 7a), mean of three wells","head suffix _20 (concentration 20), reading M80",3.347
same,"Th-T fluorescence of Aβ42 (sheet Fig. 7a), mean of three wells","head suffix _20 (concentration 20), reading M81",3.353
same,"Th-T fluorescence of Aβ42 (sheet Fig. 7a), mean of three wells","head suffix _20 (concentration 20), reading M82",3.387
same,"Th-T fluorescence of Aβ42 (sheet Fig. 7a), mean of three wells","head suffix _20 (concentration 20), reading M83",3.377
same,"Th-T fluorescence of Aβ42 (sheet Fig. 7a), mean of three wells","head suffix _20 (concentration 20), reading M84",3.32
same,"Th-T fluorescence of Aβ42 (sheet Fig. 7a), mean of three wells","head suffix _50 (concentration 50), reading M63",2.073
same,"Th-T fluorescence of Aβ42 (sheet Fig. 7a), mean of three wells","head suffix _50 (concentration 50), reading M64",2.076
same,"Th-T fluorescence of Aβ42 (sheet Fig. 7a), mean of three wells","head suffix _50 (concentration 50), reading M65",2.0862
same,"Th-T fluorescence of Aβ42 (sheet Fig. 7a), mean of three wells","head suffix _50 (concentration 50), reading M66",2.098
same,"Th-T fluorescence of Aβ42 (sheet Fig. 7a), mean of three wells","head suffix _50 (concentration 50), reading M67",2.131
same,"Th-T fluorescence of Aβ42 (sheet Fig. 7a), mean of three wells","head suffix _50 (concentration 50), reading M68",2.106
same,"Th-T fluorescence of Aβ42 (sheet Fig. 7a), mean of three wells","head suffix _50 (concentration 50), reading M69",2.087
same,"Th-T fluorescence of Aβ42 (sheet Fig. 7a), mean of three wells","head suffix _50 (concentration 50), reading M70",2.078
same,"Th-T fluorescence of Aβ42 (sheet Fig. 7a), mean of three wells","head suffix _50 (concentration 50), reading M71",2.105
same,"Th-T fluorescence of Aβ42 (sheet Fig. 7a), mean of three wells","head suffix _50 (concentration 50), reading M72",2.132

# From article PMC7156458, “Synthetic biology based construction of biological activity-related library of fungal decalin-containing diterpenoid pyrones” (Nature Communications, 2020)
